# Data taken from publication PMC8462848, “Quinazolin-4(3H)-one based potential multiple tyrosine kinase inhibitors with excellent cytotoxicity” (Journal of Enzyme Inhibition and Medicinal Chemistry, 2021).
# Assays:
# [1] = tested on: MCF7 (human breast adenocarcinoma) cells; test: MTT cytotoxicity assay, MCF7; format: cell-based
# Protocol: (§1) The cytotoxicity of the synthesised quinazolin-4(3H)-ones was evaluated by MTT assay, as previously described. Two cancer cell lines, MCF7 (human breast adenocarcinoma) and A2780 (human ovary adenocarcinoma), were used in this study, which were obtained from the ATCC (Rockville, MD, USA). […] Additionally, compounds were prepared at the same medium to obtain serial dilutions (50, 25, […] and 0.1 µM). […] The media were aspirated, and the formazan crystals were solubilised by adding 150 µL DMSO. Absorbance was read on a multi-plate reader (BioRad) at […]. […] The data were obtained from triplicates and analysed using statistical software.
# [2] = tested on: A2780 (human ovary adenocarcinoma) cells; test: MTT cytotoxicity assay, A2780; format: cell-based
# Protocol: as §1
# [3] = target: T1, CDK2/CyclinA2 (Homo sapiens, UniProt P24941); test: CDK2 Assay Kit, Kinase-Glo MAX luminescence; format: biochemical; details: one experimental data
# T1 construct: purchased #79599
# Protocol: The CDK2 Assay Kit is designed to measure CDK2/CyclinA2 activity for screening and profiling applications, using Kinase-Glo® MAX as a detection reagent. The CDK2 Assay Kit comes in a convenient 96-well format, with enough purified recombinant CDK2/CyclinA2 enzyme, CDK substrate peptide, ATP and kinase assay buffer for 100 enzyme reactions. […] […] The compounds were diluted in 10% DMSO and 5 μl of the dilution was added to a 50 μl reaction so that the final concentration of DMSO was 1% in all of the reactions. All of the enzymatic reactions were conducted at 30 °C for 40 min. The 50 μl reaction mixture contained 40 mM Tris, pH 7.4, 10 mM MgCl2, 0.1 mg/mL BSA, 1 mM DTT, 10 mM ATP, Kinase substrate and the enzyme (CDK2/CyclinA2). After the enzymatic reaction, 50 μl of Kinase-Glo® MAX Luminescence kinase assay solution was added to each reaction and the plates were incubated for 5 min at room temperature. Luminescence signal was measured using a Bio Tek Synergy 2 microplate reader.
# Figure S1. Calculation of the IC20 Values of Protein Kinase Enzyme CDK2 for 2f
# * All the kinase IC20 (µM) were calculated according to the above equations.
# (1 picture or pasted object on this page, not shown here)
# [4] = target: T2, HER2 (Homo sapiens, UniProt P04626); test: HER2 kinase assay kit, Kinase-Glo MAX luminescence; format: biochemical; details: for inhibition at 0.01 µM / inhibition at 0.1 µM / inhibition at 1 µM / inhibition at 10 µM: one experimental data; for IC50: mean ± SD of triplicate
# T2 construct: purchased #40721
# Protocol: (§2) The HER2/EGFR/VEGFR2 assay kit is designed to measure HER2/EGFR/VEGFR-2 inhibitory activity for screening and profiling applications, using Kinase-Glo® MAX as a detection reagent. The HER2/EGFR/VEGFR2 assay kit comes in a convenient 96-well format, with enough purified recombinant HER2/EGFR/VEGFR2 enzyme, HER2/EGFR/VEGFR2 substrate, ATP and kinase buffer 1 for 100 enzyme reactions. […] […] The quinazolin-4(3H)-ones were diluted in 10% DMSO and 5 μl of the dilution was added to a 50 μl reaction so that the final concentration of DMSO was 1% in all of the reactions. All of the enzymatic reactions were conducted at 30 °C for 40 min. The 50 μl reaction mixture contained 40 mM Tris, pH 7.4, 10 mM MgCl2, 0.1 mg/mL BSA, 1 mM DTT, 10 mM ATP, kinase substrate and the enzyme HER2 / EGFR / VEGFR2. After the enzymatic reaction, 50 μl of Kinase-Glo® MAX luminescence kinase assay solution was added to each reaction and the plates were incubated for 5 min at room temperature. Luminescence signal was measured using a Bio Tek Synergy 2 microplate reader (For detail enzyme assay protocol and the results, please see supplementary data).
# [5] = target: T3, EGFR (Homo sapiens, UniProt P00533); test: EGFR kinase assay kit, Kinase-Glo MAX luminescence; format: biochemical; details: for inhibition at 0.01 µM / inhibition at 0.1 µM / inhibition at 1 µM / inhibition at 10 µM: one experimental data; for IC50: mean ± SD of triplicate
# T3 construct: purchased #40321
# Protocol: as §2
# [6] = target: T4, VEGFR2 (Homo sapiens, UniProt P35968); test: VEGFR2 kinase assay kit, Kinase-Glo MAX luminescence; format: biochemical; details: for inhibition at 0.01 µM / inhibition at 0.1 µM / inhibition at 1 µM / inhibition at 10 µM: one experimental data, read-out: % Inhibition VEGFR-2; for IC50: mean ± SD of triplicate
# T4 construct: purchased #40325
# Protocol: as §2
# [7] = target: T1, CDK2/CyclinA2; test: CDK2 Assay Kit, Kinase-Glo MAX luminescence; format: biochemical; details: mean ± SD of triplicate
# [8] = Homo sapiens, MCF7, mean ± SD of triplicate
# [9] = Homo sapiens, A2780, mean ± SD of triplicate
# T4 sequence (P35968 20-1356): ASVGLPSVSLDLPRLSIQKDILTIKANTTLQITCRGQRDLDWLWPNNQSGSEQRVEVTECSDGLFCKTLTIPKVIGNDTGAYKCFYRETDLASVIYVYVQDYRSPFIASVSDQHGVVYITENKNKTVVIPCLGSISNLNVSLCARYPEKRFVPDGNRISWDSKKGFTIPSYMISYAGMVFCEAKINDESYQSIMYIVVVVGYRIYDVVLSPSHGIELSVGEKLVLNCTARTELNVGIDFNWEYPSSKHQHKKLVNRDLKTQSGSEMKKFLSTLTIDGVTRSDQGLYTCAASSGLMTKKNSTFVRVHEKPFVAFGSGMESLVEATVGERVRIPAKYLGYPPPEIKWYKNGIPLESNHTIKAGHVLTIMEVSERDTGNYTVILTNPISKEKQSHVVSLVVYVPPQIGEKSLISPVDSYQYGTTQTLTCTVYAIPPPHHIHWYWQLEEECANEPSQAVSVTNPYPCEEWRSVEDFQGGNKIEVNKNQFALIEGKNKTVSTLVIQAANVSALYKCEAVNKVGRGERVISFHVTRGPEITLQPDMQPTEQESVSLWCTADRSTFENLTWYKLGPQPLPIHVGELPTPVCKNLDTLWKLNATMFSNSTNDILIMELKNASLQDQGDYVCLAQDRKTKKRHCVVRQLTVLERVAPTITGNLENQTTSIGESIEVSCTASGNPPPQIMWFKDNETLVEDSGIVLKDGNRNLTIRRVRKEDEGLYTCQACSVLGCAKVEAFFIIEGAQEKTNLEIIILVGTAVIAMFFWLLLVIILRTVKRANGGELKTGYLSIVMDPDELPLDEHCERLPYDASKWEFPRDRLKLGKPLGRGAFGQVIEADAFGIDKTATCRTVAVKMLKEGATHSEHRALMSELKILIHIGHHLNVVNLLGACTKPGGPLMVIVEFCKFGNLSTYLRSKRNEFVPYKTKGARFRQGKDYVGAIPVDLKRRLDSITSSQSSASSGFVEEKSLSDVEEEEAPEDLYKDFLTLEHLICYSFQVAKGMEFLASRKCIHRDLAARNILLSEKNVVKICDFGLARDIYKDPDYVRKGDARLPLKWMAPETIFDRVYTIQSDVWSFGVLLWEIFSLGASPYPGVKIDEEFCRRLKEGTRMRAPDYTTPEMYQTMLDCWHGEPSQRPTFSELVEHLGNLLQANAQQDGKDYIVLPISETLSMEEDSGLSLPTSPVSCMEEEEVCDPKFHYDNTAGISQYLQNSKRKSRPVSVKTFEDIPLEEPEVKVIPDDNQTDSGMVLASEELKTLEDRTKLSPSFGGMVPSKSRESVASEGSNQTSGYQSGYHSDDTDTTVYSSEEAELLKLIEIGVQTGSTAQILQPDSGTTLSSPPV
# T2 sequence (P04626 23-1255): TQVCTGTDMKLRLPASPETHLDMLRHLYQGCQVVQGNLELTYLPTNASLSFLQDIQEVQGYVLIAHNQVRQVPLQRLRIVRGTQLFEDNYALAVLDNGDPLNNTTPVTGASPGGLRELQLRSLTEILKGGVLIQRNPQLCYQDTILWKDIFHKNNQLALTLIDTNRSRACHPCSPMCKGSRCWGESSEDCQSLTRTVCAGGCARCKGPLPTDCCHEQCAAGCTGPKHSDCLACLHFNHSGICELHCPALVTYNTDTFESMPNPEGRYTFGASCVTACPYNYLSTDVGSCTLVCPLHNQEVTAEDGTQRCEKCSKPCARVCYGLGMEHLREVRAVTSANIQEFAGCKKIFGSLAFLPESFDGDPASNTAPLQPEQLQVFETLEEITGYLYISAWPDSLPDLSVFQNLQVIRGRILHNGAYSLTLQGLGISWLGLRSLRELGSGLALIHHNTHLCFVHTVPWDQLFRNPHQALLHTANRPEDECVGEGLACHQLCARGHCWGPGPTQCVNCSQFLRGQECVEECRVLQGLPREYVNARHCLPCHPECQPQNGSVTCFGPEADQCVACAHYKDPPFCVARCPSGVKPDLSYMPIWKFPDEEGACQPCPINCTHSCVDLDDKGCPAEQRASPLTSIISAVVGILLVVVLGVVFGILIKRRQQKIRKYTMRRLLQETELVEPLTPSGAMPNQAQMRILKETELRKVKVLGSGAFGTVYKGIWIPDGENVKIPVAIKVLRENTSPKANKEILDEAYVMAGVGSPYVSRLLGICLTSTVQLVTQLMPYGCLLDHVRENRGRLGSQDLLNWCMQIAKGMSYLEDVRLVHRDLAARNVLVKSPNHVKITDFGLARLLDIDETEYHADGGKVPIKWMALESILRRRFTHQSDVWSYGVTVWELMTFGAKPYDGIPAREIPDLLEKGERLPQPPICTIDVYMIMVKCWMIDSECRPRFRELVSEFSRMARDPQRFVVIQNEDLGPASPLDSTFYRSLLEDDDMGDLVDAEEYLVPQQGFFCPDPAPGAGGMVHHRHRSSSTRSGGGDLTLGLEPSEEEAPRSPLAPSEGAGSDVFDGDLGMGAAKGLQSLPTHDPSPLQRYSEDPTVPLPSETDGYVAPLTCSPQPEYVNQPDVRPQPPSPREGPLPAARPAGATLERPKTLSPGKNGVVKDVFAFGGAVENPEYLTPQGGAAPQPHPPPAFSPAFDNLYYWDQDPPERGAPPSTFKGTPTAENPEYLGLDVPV
# T3 sequence (P00533 25-1210): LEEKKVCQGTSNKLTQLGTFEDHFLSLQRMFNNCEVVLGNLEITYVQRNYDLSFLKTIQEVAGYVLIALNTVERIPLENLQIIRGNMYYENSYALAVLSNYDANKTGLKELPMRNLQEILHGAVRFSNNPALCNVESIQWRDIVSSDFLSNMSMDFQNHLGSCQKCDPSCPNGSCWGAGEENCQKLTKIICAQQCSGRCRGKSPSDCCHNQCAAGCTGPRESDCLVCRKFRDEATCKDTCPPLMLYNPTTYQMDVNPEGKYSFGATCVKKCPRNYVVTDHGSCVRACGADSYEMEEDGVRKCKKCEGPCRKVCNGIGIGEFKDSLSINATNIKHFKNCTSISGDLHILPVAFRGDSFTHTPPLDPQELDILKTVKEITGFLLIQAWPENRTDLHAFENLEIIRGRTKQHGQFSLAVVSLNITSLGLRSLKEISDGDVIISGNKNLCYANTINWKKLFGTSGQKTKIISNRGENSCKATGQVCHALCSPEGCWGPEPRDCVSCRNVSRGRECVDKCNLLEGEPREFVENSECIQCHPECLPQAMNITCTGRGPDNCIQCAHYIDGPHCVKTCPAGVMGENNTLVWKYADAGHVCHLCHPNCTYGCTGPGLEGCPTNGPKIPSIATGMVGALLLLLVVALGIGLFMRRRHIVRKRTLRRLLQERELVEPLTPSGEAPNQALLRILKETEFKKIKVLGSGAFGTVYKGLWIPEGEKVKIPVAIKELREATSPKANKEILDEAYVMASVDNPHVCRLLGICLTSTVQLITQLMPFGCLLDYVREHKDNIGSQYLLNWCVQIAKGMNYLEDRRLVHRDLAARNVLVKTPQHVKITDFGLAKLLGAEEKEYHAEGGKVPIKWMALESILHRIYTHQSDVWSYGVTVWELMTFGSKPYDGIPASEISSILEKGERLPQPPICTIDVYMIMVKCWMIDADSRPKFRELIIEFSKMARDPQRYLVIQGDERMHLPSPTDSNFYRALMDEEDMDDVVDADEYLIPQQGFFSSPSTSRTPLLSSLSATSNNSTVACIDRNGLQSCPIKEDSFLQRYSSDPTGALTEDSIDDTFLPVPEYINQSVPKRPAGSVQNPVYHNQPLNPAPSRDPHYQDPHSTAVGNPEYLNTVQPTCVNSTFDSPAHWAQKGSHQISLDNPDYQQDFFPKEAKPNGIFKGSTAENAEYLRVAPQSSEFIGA
Molecule,inhibition at 0.01 µM [3],inhibition at 0.1 µM [3],inhibition at 1 µM [3],inhibition at 10 µM [3],inhibition at 0.01 µM [4],inhibition at 0.1 µM [4],inhibition at 1 µM [4],inhibition at 10 µM [4],IC50 [4],inhibition at 0.01 µM [5],inhibition at 0.1 µM [5],inhibition at 1 µM [5],inhibition at 10 µM [5],IC50 [5],inhibition at 0.01 µM [6],inhibition at 0.1 µM [6],inhibition at 1 µM [6],melting point,"IC50 [1, 8]","IC50 [2, 9]",also measured
"CCOC(=O)CSc1nc2ccc(Cl)cc2c(=O)n1-c1ccccc1 [2a, Ethyl 2-((6-chloro-4-oxo-3-phenyl-3,4-dihydroquinazolin-2-yl)thio)acetate]",–,–,–,–,–,–,–,–,–,–,–,–,–,–,–,–,–,85 to 87 °C,1500 ± 10 nM,2050 ± 640 nM,–
"CCOC(=O)CSc1nc2ccc(F)cc2c(=O)n1-c1ccccc1 [2b, Ethyl 2-((6-fluoro-4-oxo-3-phenyl-3,4-dihydroquinazolin-2-yl)thio)acetate]",–,–,–,–,–,–,–,–,–,–,–,–,–,–,–,–,–,124 to 127 °C,15720 ± 70 nM,2980 ± 300 nM,–
"CS(=O)(=O)CCNCc1ccc(-c2ccc3ncnc(Nc4ccc(OCc5cccc(F)c5)c(Cl)c4)c3c2)o1 [lapatinib, reference compound]",–,–,–,–,23.3%,23.2%,84.3%,92.2%,–,–,–,–,–,–,–,–,–,–,5900 ± 740 nM,11100 ± 1030 nM,IC50 ([2]; mean ± SD of triplicate): 12100 ± 1030 nM
"CCOC(=O)CSc1nc2cc(OC)c(OC)cc2c(=O)n1-c1ccccc1 [2d, Ethyl 2-((6,7-dimethoxy-4-oxo-3-phenyl-3,4-dihydroquinazolin-2-yl)thio)acetate]",–,–,–,–,–,–,–,–,–,–,–,–,–,–,–,–,–,145 to 146 °C,1560 ± 20 nM,1230 ± 100 nM,–
"CCOC(=O)CSc1nc2ccc(Cl)cc2c(=O)n1Cc1ccccc1 [2f, Ethyl 2-((3-benzyl-6-chloro-4-oxo-3,4-dihydroquinazolin-2-yl)thio)acetate]",4.32%,31.2%,32.9%,84%,2.33%,38.9%,74.8%,89.8%,264 ± 13 nM,2.18%,19.1%,29.2%,83.2%,584 ± 11 nM,3.49%,20.2%,40.1%,73 to 75 °C,1560 ± 240 nM,1320 ± 430 nM,inhibition at 10 µM [6]: 38.3%; IC50 [6]: 1920 ± 21 nM; IC50 [7]: 424 ± 12 nM
"CCOC(=O)CSc1nc2c(F)cc(F)cc2c(=O)n1Cc1ccccc1 [2h, Ethyl 2-((3-benzyl-6,8-difluoro-4-oxo-3,4-dihydroquinazolin-2-yl)thio)acetate]",2.43%,12.5%,24.4%,80.2%,9.07%,38.9%,32.3%,82.3%,138 ± 12 nM,3.71%,27.5%,21%,77.3%,102 ± 14 nM,13.3%,38.9%,70.8%,120 to 123 °C,840 ± 160 nM,1400 ± 340 nM,inhibition at 10 µM [6]: 88%; IC50 [6]: 2190 ± 24 nM; IC50 [7]: 318 ± 23 nM
"2-((5-Chloro-6-methyl-4-oxo-3-phenyl-3,4-dihydroquinazolin-2-yl)thio)acetohydrazide [3e]",–,–,–,–,–,–,–,–,–,–,–,–,–,–,–,–,–,–,–,–,IC50 ([1]; mean ± SD of triplicate): 740 ± 230 nM; IC50 ([2]; mean ± SD of triplicate): 920 ± 110 nM
"Ethyl 2-((5-chloro-6-methyl-4-oxo-3-phenyl-3,4-dihydroquinazolin-2-yl)thio)acetate [2e]",–,–,–,–,–,–,–,–,–,–,–,–,–,–,–,–,–,–,–,–,IC50 ([1]; mean ± SD of triplicate): 14900 ± 990 nM; IC50 ([2]; mean ± SD of triplicate): 16400 ± 1800 nM
"CCOC(=O)CSc1nc2c(F)cc(F)cc2c(=O)n1-c1ccccc1 [2c, Ethyl 2-((6,8-difluoro-4-oxo-3-phenyl-3,4-dihydroquinazolin-2-yl)thio)acetate]",–,–,–,–,–,–,–,–,–,–,–,–,–,–,–,–,–,151 to 153 °C,730 ± 180 nM,490 ± 50 nM,–

# Continued, in another order:
inhibition at 0.01 µM [3],inhibition at 0.1 µM [3],inhibition at 1 µM [3],inhibition at 10 µM [3],inhibition at 0.01 µM [4],inhibition at 0.1 µM [4],inhibition at 1 µM [4],inhibition at 10 µM [4],IC50 [4],inhibition at 0.01 µM [5],inhibition at 0.1 µM [5],inhibition at 1 µM [5],inhibition at 10 µM [5],IC50 [5],inhibition at 0.01 µM [6],inhibition at 0.1 µM [6],inhibition at 1 µM [6],melting point,Molecule,"IC50 [1, 8]","IC50 [2, 9]",also measured
10.3%,44.3%,72.1%,90.4%,17.9%,20.3%,84.3%,94.8%,79 ± 15 nM,3.38%,41.2%,77.2%,92.4%,181 ± 11 nM,10.2%,33.5%,37.2%,–,"COc1cc2nc(SCC(=O)NN)n(Cc3ccccc3)c(=O)c2cc1OC [3i, 2-((3-Benzyl-6,7-dimethoxy-4-oxo-3,4-dihydroquinazolin-2-yl)thio)acetohydrazide]",560 ± 310 nM,1360 ± 70 nM,inhibition at 10 µM [6]: 89.4%; IC50 [6]: 257 ± 23 nM; IC50 [7]: 177 ± 32 nM
2.23%,34.7%,33.3%,81%,17.3%,47.8%,82.2%,90.2%,132 ± 14 nM,3.31%,31.3%,31.4%,84.8%,440 ± 15 nM,3.71%,29.8%,23.4%,151 to 152 °C,"NNC(=O)CSc1nc2ccc(Cl)cc2c(=O)n1Cc1ccccc1 [3f, 2-((3-Benzyl-6-chloro-4-oxo-3,4-dihydroquinazolin-2-yl)thio)acetohydrazide]",340 ± 110 nM,1540 ± 600 nM,inhibition at 10 µM [6]: 79.3%; IC50 [6]: 651 ± 14 nM; IC50 [7]: 420 ± 13 nM
14.9%,47.1%,74.1%,89%,23.4%,23.4%,83.8%,94.8%,112 ± 16 nM,11.7%,40.3%,81.3%,94%,221 ± 14 nM,3.73%,40.9%,71.9%,–,"NNC(=O)CSc1nc2ccc(F)cc2c(=O)n1Cc1ccccc1 [3g, 2-((3-Benzyl-6-fluoro-4-oxo-3,4-dihydroquinazolin-2-yl)thio)acetohydrazide]",–,–,inhibition at 10 µM [6]: 90.3%; IC50 [6]: 294 ± 11 nM; IC50 [7]: 207 ± 17 nM
–,–,–,–,–,–,–,–,–,–,–,–,–,–,–,–,–,192 to 194 °C,"NNC(=O)CSc1nc2ccc(F)cc2c(=O)n1-c1ccccc1 [3b, 2-((6-Fluoro-4-oxo-3-phenyl-3,4-dihydroquinazolin-2-yl)thio)acetohydrazide]",1320 ± 120 nM,300 ± 60 nM,–
–,–,–,–,–,–,–,–,–,–,–,–,–,–,–,–,–,181 to 183 °C,"NNC(=O)CSc1nc2ccc(Cl)cc2c(=O)n1-c1ccccc1 [3a, 2-((6-Chloro-4-oxo-3-phenyl-3,4-dihydroquinazolin-2-yl)thio)acetohydrazide]",200 ± 20 nM,3000 ± 1200 nM,–
–,–,–,–,–,–,–,–,–,–,–,–,–,–,–,–,–,166 to 168 °C,"COc1cc2nc(SCC(=O)NN)n(-c3ccccc3)c(=O)c2cc1OC [3d, 2-((6,7-Dimethoxy-4-oxo-3-phenyl-3,4-dihydroquinazolin-2-yl)thio)acetohydrazide]",500 ± 290 nM,770 ± 660 nM,–
–,–,–,–,–,–,–,–,–,–,–,–,–,–,–,–,–,201 to 203 °C,"NNC(=O)CSc1nc2c(F)cc(F)cc2c(=O)n1-c1ccccc1 [3c, 2-((6,8-Difluoro-4-oxo-3-phenyl-3,4-dihydroquinazolin-2-yl)thio)acetohydrazide]",330 ± 30 nM,1210 ± 10 nM,–
